Common to all, as to assay: DTP human tumour cell line panel, 48 h
In assay [1] the test system is A549 NSCLC.
Assay [2] deals with DU-145 prostate.
Assay [3] concerns EKVX NSCLC.
Assay [4] relates to HCC-2998 colon.
The subject of assay [5] is HL-60(TB) leukemia.
In assay [6] the test system is HT29 colon.
In assay [7] the test system is K-562 leukemia.
Assay [8] relates to M14 melanoma.
For assay [9], the system named is MCF7 breast.
Assay [10] has as its system MDA-MB-231 breast.
For assay [11], the system named is MDA-MB-435.
For assay [12], the system named is MOLT-4 leukemia.
The subject of assay [13] is NCI-H23 lung.
Assay [14] has as its system NCI/ADR-RES ovarian.
For assay [15], the system named is SF-295 CNS.
The subject of assay [16] is SK-MEL-2 melanoma.
Assay [17] concerns SK-MEL-28 melanoma.
Assay [18] deals with SNB-19 CNS.
Assay [19] has as its system TK-10 renal.
The test system of assay [20] is A498 renal.

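How tested: cells in 96-well plates exposed to compound for 48 hours at five concentrations. TGI denotes the concentration required for complete inhibition of growth.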 Where a SMILES comes first, the peptide text is derived from it. The star is where a group is joined. Boc = CC(C)(C)OC(=O)*

On to `COP(=O)(C(/C=C/c1ccccc1)OC(C)=O)[C@@H]1CCCC[C@H]1N(CC(C)(C)C)C(C)=O` (stereo partly specified), for which the concentration for total growth inhibition (TGI) was 47.3 µM in assay [1]; 32.5 µM in assay [2]; 57.8 µM in assay [3]; 28.2 µM in assay [4]; 41.3 µM in [5]; 28 µM in [6]. Besides, the TGI in assay [7] was 53 µM; in assay [8], 28.8 µM; in assay [9], greater than 100 µM; in [10] it was 31.6 µM; in assay [11], 36.2 µM; in assay [12] it was 27.7 µM. Further, the TGI was 42.5 µM in assay [13]; 42.2 µM in assay [14]; 39.9 µM in assay [15]; 29.8 µM in assay [16]; 53.1 µM in assay [17]; greater than 100 µM in assay [18]. In assay [19], the TGI is 48.2 µM.

Turning to `CC1C(=O)C23OC[C@@]1(C)C1(O)CC[C@@H](C)[C@]21CC3=O` (stereo partly specified), the TGI in [1], in assay [2], in [3], in assay [4], in [5] and in [6] was greater than 100 µM throughout. Moreover, the TGI in assay [7], in assay [8], in assay [9], in assay [10], in [11] and in [12] was greater than 100 µM throughout. The TGI in assay [13], in assay [14], in assay [15], in [16], in [17] and in assay [18] was greater than 100 µM in each case. The compound further returned a TGI in [19] greater than 100 µM.

On to `CC(C)(C)OC(=O)N/N=C(/N)c1ccccc1`, for which the TGI in [1], in assay [2], in [3], in assay [4], in assay [5] and in assay [6] was greater than 100 µM each time. The TGI in assay [7], in [8], in [9], in [10], in assay [11] and in [12] was greater than 100 µM in each case. Also, the TGI in assay [13], in [14], in assay [15], in assay [16], in assay [17] and in assay [18] was greater than 100 µM in each case. In addition, in assay [19], the TGI is greater than 100 µM.

For the compound `CCOC(=O)[C@H]1C[C@]23CN(C(=O)OC(C)(C)C)CC[C@H]2CCC2(SCCCS2)[C@@H]3N1C`, the TGI in assay [20] was greater than 100 µM; in assay [1] it was greater than 100 µM; in assay [2], greater than 100 µM; in assay [3], 90.4 µM; in assay [4] it was 65.4 µM; in assay [5], 47.3 µM. Moreover, the concentration for total growth inhibition (TGI) in assay [6] is 53.3 µM; in assay [7] it was greater than 100 µM; in assay [8], greater than 100 µM; in [9], greater than 100 µM; in [11] it was greater than 100 µM; in [12], greater than 100 µM. Further, the TGI in assay [13] is greater than 100 µM; in assay [14] it was greater than 100 µM; in assay [15] it was greater than 100 µM; in assay [16], 63.3 µM; in assay [17], greater than 100 µM; in assay [18], greater than 100 µM. Besides, the TGI in [19] turned out to be 81.2 µM.

`Cc1cc(Br)cc(C)c1NC(=O)C(=O)C1C(=O)C(CC2C(=O)c3ccccc3C2=O)C(=O)CC1(C)C` (stereo unspecified): the TGI in assay [1], in [2], in [3], in assay [4], in assay [5] and in assay [6] was greater than 100 µM in each case. For the same compound, the TGI was greater than 100 µM in assay [8]; greater than 100 µM in assay [9]; greater than 100 µM in assay [10]; greater than 100 µM in assay [11]; 74.5 µM in assay [12]; greater than 100 µM in [13]. For the same compound, the TGI in [14], in assay [15], in [16], in [17], in assay [18] and in assay [19] was greater than 100 µM throughout.

Regarding `CC1(C)S[C@@H]2[C@H](NC(=O)/C=C/c3ccccc3)C(=O)N2[C@H]1C(=O)O`, the TGI in assay [1], in [2], in [4], in assay [5], in assay [6] and in assay [8] was greater than 100 µM in each case. For the same compound, the TGI in assay [9], in [10], in assay [11], in [12], in assay [13] and in assay [14] was greater than 100 µM in each case. The TGI in assay [15], in [16], in [17], in assay [18] and in assay [19] was greater than 100 µM each time.

With `O=C(Nc1ccc(F)cc1)c1cc2ccc(O)cc2oc1=Nc1ccccc1F`, the TGI in assay [20] was greater than 100 µM; in [2], greater than 100 µM; in assay [3], 40.8 µM; in assay [4], greater than 100 µM; in assay [5] it was 69.5 µM; in assay [6] it was greater than 100 µM. Further, the TGI is greater than 100 µM in assay [7]; greater than 100 µM in assay [9]; greater than 100 µM in assay [11]; greater than 100 µM in assay [12]; 13.6 µM in [13]; 51.8 µM in assay [14]. For the same compound, the TGI in assay [15], in assay [16] and in [17] was greater than 100 µM each time.

On to `CCOC(=O)C(CC(C)C)NC(=O)C(Cc1ccccc1)NC(=O)CNC(=O)OC(C)(C)C` (stereo not drawn) (Boc-Gly-Phe-Leu-OEt; configuration not given here), for which the TGI was 49.6 µM in assay [20]; 44.1 µM in assay [1]; 43.6 µM in assay [2]; 54.1 µM in [3]; 37.2 µM in assay [4]; 9.88 µM in [5]. Besides, the total growth inhibition concentration (TGI) came to 32.4 µM in assay [6]; 49 µM in assay [7]; 40.2 µM in [8]; 17.3 µM in [9]; 34.4 µM in assay [11]; 30.6 µM in assay [12]. The TGI in assay [14] was greater than 100 µM; in [15], 78.5 µM; in [16], 99.4 µM; in assay [17] it was 31.5 µM; in [18], greater than 100 µM; in [19], 97.8 µM.

For the compound `Cc1cc(=O)oc2c(CNC(C(=O)O)C(C)O)c(O)ccc12` (stereo unspecified), the TGI in assay [1], in [2], in assay [3], in assay [5], in assay [6] and in assay [7] was greater than 100 µM in each case. Besides, the TGI in assay [8], in assay [9], in assay [10], in assay [11], in assay [12] and in assay [13] was greater than 100 µM throughout. Also, the TGI in assay [14], in assay [15], in assay [16], in assay [17], in assay [18] and in assay [19] was greater than 100 µM each time.

Turning to `O=[N+]([O-])c1ccc(N2N=C(c3ccc4ccccc4c3O)CC2c2ccc(Cl)cc2Cl)c([N+](=O)[O-])c1` (stereo unspecified), the total growth inhibition concentration (TGI) in assay [1] was greater than 100 µM; in [2], greater than 100 µM; in assay [3], greater than 100 µM; in [4], greater than 100 µM; in [5] it was 77.4 µM; in assay [6] it was greater than 100 µM. Further, the TGI in assay [7] is 35.5 µM; in assay [9] it was greater than 100 µM; in assay [10] it was greater than 100 µM; in assay [11], greater than 100 µM; in [12], 38 µM; in assay [13], greater than 100 µM. Further, the TGI in [14], in [15], in [16], in assay [17], in assay [18] and in assay [19] was greater than 100 µM throughout.

Turning to `CN(NC(=O)c1cccs1)C1=NCCN1`, the TGI in [20], in [1], in assay [3], in [4], in assay [5] and in assay [6] was greater than 100 µM each time. In addition, the concentration for total growth inhibition (TGI) in [7], in assay [8], in assay [9], in assay [10], in [11] and in assay [12] was greater than 100 µM throughout. Moreover, the TGI in assay [13], in [14], in [15], in assay [16], in assay [17] and in [18] was greater than 100 µM throughout. Further, the TGI in assay [19] is greater than 100 µM.

Regarding `COc1cccc(-c2cc(=O)c3cccnc3[nH]2)c1`, the TGI in assay [20] was greater than 100 µM; in [1] it was greater than 42.7 µM; in [2], greater than 100 µM; in assay [3] it was greater than 100 µM; in assay [6], 0.561 µM; in assay [7] it was greater than 100 µM. Besides, the TGI is greater than 100 µM in assay [8]; greater than 100 µM in assay [9]; greater than 100 µM in assay [10]; 0.0855 µM in assay [11]; greater than 100 µM in assay [12]; greater than 100 µM in assay [15]. Also, the TGI in [16], in [17], in assay [18] and in assay [19] was greater than 100 µM each time.

For the compound `COC(=O)CNC(=O)Nc1cc(N2C(=O)ON3C2C(C)(C)N(O)C3(C)C)ccc1C` (stereo unspecified), the TGI in assay [1], in [3], in assay [4], in assay [6], in assay [7] and in assay [8] was greater than 100 µM each time. Besides, the TGI in [9], in assay [10], in assay [11], in assay [12], in assay [13] and in assay [14] was greater than 100 µM throughout. Also, the TGI in [15], in [16], in [17], in [18] and in assay [19] was greater than 100 µM in each case.

On to `CCOC(=O)CCC(NC(=O)c1ccc(Oc2nc3ccccc3nc2C(=O)OCC)cc1)C(=O)OCC` (stereo unspecified), for which the total growth inhibition concentration (TGI) in assay [1], in assay [2], in assay [3], in [4], in [5] and in assay [6] was greater than 100 µM throughout. The TGI in assay [8] is greater than 100 µM; in [9], greater than 100 µM; in assay [10], 95.9 µM; in assay [11] it was greater than 100 µM; in assay [12] it was greater than 100 µM; in assay [13], greater than 100 µM. Further, the TGI in assay [14], in assay [15], in [16], in [17], in assay [18] and in assay [19] was greater than 100 µM throughout.

Take `COC(=O)/C(=C\C(=O)c1ccc(Br)cc1)NN=C(c1ccccc1)c1ccccc1`: the total growth inhibition concentration (TGI) in assay [1], in [2], in [3], in assay [4], in [5] and in assay [6] was greater than 10 µM each time. For the same compound, the TGI in assay [7], in assay [8], in [9], in [10], in assay [11] and in [12] was greater than 10 µM each time. For the same compound, the TGI in assay [13], in assay [15], in assay [17] and in assay [19] was greater than 10 µM each time.

These data come from PubChem BioAssay (NCI).
